# Counter-ions that a name gives are not always drawn.
# What was measured:
# [1] = target: T1, human muscarinic acetylcholine M3 receptor (M3-ACh) (Homo sapiens, UniProt P20309); experiment: Muscarinic 3 Receptor Binding Assay ([3H]NMS competition, SPA); details: [3H]NMS 0.1 nM, CHO-K1 cell membranes, 16 hours at room temperature; read-out: M3 pIC50 (converted)
# T1 construct: expressed in transfected cells; host or cells: CHO-K1 (Chinese Hamster Ovary) cell membranes
# Procedure, shortened: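 Competition SPA binding of 0.1 nM [3H]NMS (quarter Kd) to membranes from CHO-K1 cells expressing human M3, in 20 mM HEPES pH 7.4, 5 mM MgCl2, 1% DMSO. Incubated 16 h at room temperature; non-specific binding with 1 µM atropine. pIC50 from 50% reduction of specific binding.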
# [2] = target: T2, Adrenergic β2 (H292 cells) (Homo sapiens, UniProt P07550); experiment: Assay for Adrenergic β2 Mediated cAMP Production (concentration response, AlphaScreen cAMP detection); assay type: cell-based; details: for EC50: cAMP production, 60 minutes at room temperature, 300 μM rolipram, read-out: β2 pEC50 (converted); for β2 Intrinsic activity: fraction relative to the maximum activity determined for formoterol
# T2 construct: endogenous in cells; host or cells: H292 cells
# T2 sequence (P07550 whole entry): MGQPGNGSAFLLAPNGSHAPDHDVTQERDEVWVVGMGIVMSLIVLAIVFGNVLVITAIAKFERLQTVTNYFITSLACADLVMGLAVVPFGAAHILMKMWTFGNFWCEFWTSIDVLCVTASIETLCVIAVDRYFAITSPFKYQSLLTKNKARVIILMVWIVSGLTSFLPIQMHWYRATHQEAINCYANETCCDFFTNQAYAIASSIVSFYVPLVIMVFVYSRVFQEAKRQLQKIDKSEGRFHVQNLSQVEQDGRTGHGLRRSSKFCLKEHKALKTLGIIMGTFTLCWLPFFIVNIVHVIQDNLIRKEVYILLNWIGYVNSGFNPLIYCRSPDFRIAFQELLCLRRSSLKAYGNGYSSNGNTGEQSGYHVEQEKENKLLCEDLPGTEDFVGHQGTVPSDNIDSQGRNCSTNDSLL
# Procedure, shortened: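 Intrinsic activity is relative to the per-experiment formoterol maximum, with pEC50 from a four-parameter logistic fit of cAMP levels quantified by AlphaScreen against standards. Cells (H292) got 300 μM rolipram for 10 min, then compound for 60 min at room temperature, 1% DMSO final.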
# T1 sequence (P20309 whole entry): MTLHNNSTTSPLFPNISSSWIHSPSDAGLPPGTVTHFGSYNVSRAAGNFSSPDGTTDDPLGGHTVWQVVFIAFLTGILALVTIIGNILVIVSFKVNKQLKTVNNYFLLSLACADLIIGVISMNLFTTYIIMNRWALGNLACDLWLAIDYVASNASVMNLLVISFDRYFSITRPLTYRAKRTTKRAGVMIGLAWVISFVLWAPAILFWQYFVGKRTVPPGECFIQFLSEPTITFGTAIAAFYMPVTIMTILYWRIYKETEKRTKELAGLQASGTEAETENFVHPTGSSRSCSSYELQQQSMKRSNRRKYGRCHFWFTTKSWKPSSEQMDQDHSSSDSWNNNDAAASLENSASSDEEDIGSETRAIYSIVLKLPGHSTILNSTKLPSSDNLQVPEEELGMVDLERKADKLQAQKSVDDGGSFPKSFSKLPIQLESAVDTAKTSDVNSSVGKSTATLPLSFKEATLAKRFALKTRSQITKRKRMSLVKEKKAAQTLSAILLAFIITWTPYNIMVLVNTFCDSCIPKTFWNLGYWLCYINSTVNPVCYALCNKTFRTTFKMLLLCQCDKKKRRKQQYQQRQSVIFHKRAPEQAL
IC50 [1] [nM],EC50 [2] [nM],β2 Intrinsic activity [2],Compound
12.6,10,1,"CC(C)c1csc(C(=O)N2CCOC3(CCN(Cc4cc(F)cc(CCNC[C@H](O)c5ccc(O)c6[nH]c(=O)sc56)c4)CC3)C2)n1 [Example 53, (R)-7-(2-(3-Fluoro-5-((4-(4-isopropylthiazole-2-carbonyl)-1-oxa-4,9-diazaspiro[5.5]undecan-9-yl)methyl)phenethylamino)-1-hydroxyethyl)-4-hydroxybenzo[d]thiazol-2(3H)-one ditrifluoroacetate]"
3.16,3.16,0.9,"Cc1ccc(C(=O)N2CC(F)(F)OC3(CCN(Cc4cccc(CCNC[C@H](O)c5ccc(O)c6[nH]c(=O)ccc56)c4)CC3)C2)s1 [Example 37, (R)-5-(2-(3-((2,2-Difluoro-4-(5-methylthiophene-2-carbonyl)-1-oxa-4,9-diazaspiro[5.5]undecan-9-yl)methyl)phenethylamino)-1-hydroxyethyl)-8-hydroxyquinolin-2(1H)-one ditrifluoroacetate]"
0.316,12.6,0.8,"Cc1nc(C(=O)N2CCOC3(CCN(CCCCCCCCCNC[C@H](O)c4ccc(O)c5[nH]c(=O)sc45)CC3)C2)cs1 [Example 2, (R)-4-Hydroxy-7-(1-hydroxy-2-(9-(4-(2-methylthiazole-4-carbonyl)-1-oxa-4,9-diazaspiro[5.5]undecan-9-yl)nonylamino)ethyl)benzo[d]thiazol-2(3H)-one ditrifluoroacetate]"
1,15.8,0.8,"O=C(c1csc(C(F)(F)F)n1)N1CCOC2(CCN(Cc3cccc(CCNC[C@H](O)c4ccc(O)c5[nH]c(=O)ccc45)c3)CC2)C1 [Example 25, (R)-8-Hydroxy-5-(1-hydroxy-2-(3-((4-(2-(trifluoromethyl)thiazole-4-carbonyl)-1-oxa-4,9-diazaspiro[5.5]undecan-9-yl)methyl)phenethylamino)ethyl)quinolin-2(1H)-one ditrifluoroacetate]"
7.94,20,1,"CC(C)c1cc(C(=O)N2CCOC3(CCN(Cc4cc(CCNC[C@H](O)c5ccc(O)c6[nH]c(=O)sc56)cs4)CC3)C2)cs1 [Example 264, (R)-4-Hydroxy-7-(1-hydroxy-2-(2-(5-((4-(5-isopropylthiophene-3-carbonyl)-1-oxa-4,9-diazaspiro[5.5]undecan-9-yl)methyl)thiophen-3-yl)ethylamino)ethyl)benzo[d]thiazol-2(3H)-one ditrifluoroacetate]"
2.51,20,0.8,"Cc1ccc(C(=O)N2CCOC3(CCN(Cc4cccc(OCCNC[C@H](O)c5ccc(O)c6[nH]c(=O)sc56)c4)CC3)C2)s1 [Example 38, (R)-4-Hydroxy-7-(1-hydroxy-2-(2-(3-((4-(5-methylthiophene-2-carbonyl)-1-oxa-4,9-diazaspiro[5.5]undecan-9-yl)methyl)phenoxy)ethylamino)ethyl)benzo[d]thiazol-2(3H)-one ditrifluoroacetate]"
2,25.1,0.8,"CC(C)c1nc(C(=O)N2CCOC3(CCN(Cc4ccc(Cl)c(CCNC[C@H](O)c5ccc(O)c6[nH]c(=O)sc56)c4)CC3)C2)cs1 [Example 75, (R)-7-(2-(2-Chloro-5-((4-(2-isopropylthiazole-4-carbonyl)-1-oxa-4,9-diazaspiro[5.5]undecan-9-yl)methyl)phenethylamino)-1-hydroxyethyl)-4-hydroxybenzo[d]thiazol-2(3H)-one ditrifluoroacetate]"
79.4,398,0.5,"CC(C)c1nc(C(=O)N2CCOC3(CCN(Cc4ccc(C(F)(F)F)c(CCNC[C@H](O)c5ccc(O)c6[nH]c(=O)ccc56)c4)CC3)C2)cs1 [Example 273, (R)-8-Hydroxy-5-(1-hydroxy-2-(5-((4-(2-isopropylthiazole-4-carbonyl)-1-oxa-4,9-diazaspiro[5.5]undecan-9-yl)methyl)-2-(trifluoromethyl)phenethylamino)ethyl)quinolin-2(1H)-one ditrifluoroacetate]"
63.1,6.31,1,"CC(C)c1ncc(C(=O)N2CCOC3(CCN(Cc4cc(F)cc(CCNC[C@H](O)c5ccc(O)c6[nH]c(=O)sc56)c4)CC3)C2)s1 [Example 55, (R)-7-(2-(3-Fluoro-5-((4-(2-isopropylthiazole-5-carbonyl)-1-oxa-4,9-diazaspiro[5.5]undecan-9-yl)methyl)phenethylamino)-1-hydroxyethyl)-4-hydroxybenzo[d]thiazol-2(3H)-one ditrifluoroacetate]"
0.2,7.94,0.9,"CC(C)c1nc(C(=O)N2CCOC3(CCN(CCCCCCCCCNC[C@H](O)c4ccc(O)c5[nH]c(=O)sc45)CC3)C2)cs1 [Example 109, (R)-4-Hydroxy-7-(1-hydroxy-2-(9-(4-(2-isopropylthiazole-4-carbonyl)-1-oxa-4,9-diazaspiro[5.5]undecan-9-yl)nonylamino)ethyl)benzo[d]thiazol-2(3H)-one formate]"
1.58,10,1,"CC(C)c1ccc(C(=O)N2CCOC3(CCN(Cc4cccc(CCNC[C@H](O)c5ccc(O)c6[nH]c(=O)sc56)c4)CC3)C2)s1 [Example 268, (R)-4-Hydroxy-7-(1-hydroxy-2-(3-((4-(5-isopropylthiophene-2-carbonyl)-1-oxa-4,9-diazaspiro[5.5]undecan-9-yl)methyl)phenethylamino)ethyl)benzo[d]thiazol-2(3H)-one ditrifluoroacetate]"
1,7.94,1.0,"Cc1nc(C(=O)N2CCOC3(CCN(CCOc4ccc(CCNC[C@H](O)c5ccc(O)c6[nH]c(=O)sc56)cc4)CC3)C2)cs1 [Example 3, (R)-4-Hydroxy-7-(1-hydroxy-2-(4-(2-(4-(2-methylthiazole-4-carbonyl)-1-oxa-4,9-diazaspiro[5.5]undecan-9-yl)ethoxy)phenethylamino)ethyl)benzo[d]thiazol-2(3H)-one dihydrochloride]"
1.58,3.16,0.9,"Cc1nc(C(=O)N2CCOC3(CCN(Cc4cc(F)cc(CCNC[C@H](O)c5ccc(O)c6[nH]c(=O)sc56)c4)CC3)C2)cs1 [Example 19, (R)-7-(2-(3-Fluoro-5-((4-(2-methylthiazole-4-carbonyl)-1-oxa-4,9-diazaspiro[5.5]undecan-9-yl)methyl)phenethylamino)-1-hydroxyethyl)-4-hydroxybenzo[d]thiazol-2(3H)-one ditrifluoroacetate]"
126,794,0.9,"CC(C)c1nc(C(=O)N2CCOC3(CCN(Cc4cccc(C(C)(C)CNC[C@H](O)c5ccc(O)c6[nH]c(=O)ccc56)c4F)CC3)C2)cs1 [Example 92, (R)-5-(2-(2-(2-Fluoro-3-((4-(2-isopropylthiazole-4-carbonyl)-1-oxa-4,9-diazaspiro[5.5]undecan-9-yl)methyl)phenyl)-2-methylpropylamino)-1-hydroxyethyl)-8-hydroxyquinolin-2(1H)-one ditrifluoroacetate]"

# From patent US8148373B2, “Compounds” (AstraZeneca AB, priority 2008, dated 2012)
